Measured values as given in patent US20260049104A1, “PEPTIDES WITH ANTIMICROBIAL PROPERTIES” (priority 2022, published 2026).
≈ marks a conversion by molar mass, not a printed value. Read-outs that look alike come from different tables or passages of the source.

Key:
Escherichia coli = conditions: for MIC value: Table 15, unit inferred
Procedure: (§1) MIC screening of the peptides against a panel of ATCC and clinical strains was performed using broth microdilution method.^1 Briefly, peptides stock solutions in DMSO (0.1/G TFA) were diluted into Mueller Hinton Broth (MHB), followed by two-fold serial dilution in a 96-well plate. Bacteria culture in mid-log phase was diluted into MHB to yield […] colony-forming units (CFU)/mL. Equal volume of the starting inoculum was added to the peptide samples, then incubated for 18-20 h (37° C., 120 rpm). OD600 of the samples was then measured using Tecan Infinite M200 (TECAN, Männedorf, Switzerland). MIC is defined as the lowest peptide concentration to achieve more than 90% reduction in OD600 relative to the drug-free control. The experiments were repeated three times. Colistin-resistant clinical isolates are a kind gift from Dr. Jeanette Koh (National University Hospital, Singapore). Multidrug-resistant clinical isolates are a kind gift from Dr. Lakshminarayanan Rajamani (Singapore Eye Research Institute, Singapore).
(§2) Kanamycin and ampicillin were used as antibacterial control agents. […] Then, sequential 2-fold serial dilutions of the mix were diluted in 50 μL MH broth and 50 μL cell cultures were added to wells. […] All assays were carried out in triplicate.

Klebsiella pneumoniae = conditions: for MIC value: Table 15, unit inferred
Procedure: as §1, §2

Acinetobacter baumannii = conditions: for MIC value: Table 15, unit inferred
Procedure: as §1, §2

Enterobacter cloacae = conditions: Table 15, unit inferred
Procedure: as §1, §2

Pseudomonas aeruginosa = type: cell-based; conditions: for MIC value: Table 15, unit inferred
Source text: The experiments were repeated three times.

[1] = system: Gram-positive and Gram-negative bacteria; conditions: panel of E. coli, K. pneumoniae, E. cloacae, A. baumannii, E. faecalis and S. aureus; preliminary screening
Procedure: as §1, §2

Staphylococcus aureus = Staphylococcus aureus ATCC 29737
Procedure: as §1, §2

[2] = ATCC 25922, printed under Klebsiella pneumoniae
[3] = Acinetobacter baumanii ACβA1001
[4] = Acinetobacter baumanii ACβA1002
[5] = Acinetobacter baumanii ACβA1003
[6] = Acinetobacter baumanii ACβA1004
[7] = Pseudomonas aeruginosa DR4877/07
[8] = Pseudomonas aeruginosa DR5790/07

Compound: CC(C)[C@@H]1NC(=O)[C@@H](N)Cc2c[nH]c3cc(ccc23)C(C(N)=O)[C@@H](C(=O)N[C@@H](C)C(=O)N[C@H]2Cc3cccc(c3)C(CCNC(=N)N)[C@@H](C(=O)N[C@H]3Cc4c[nH]c5cc(ccc45)C(CCCN)[C@@H](C(=O)N[C@@H](CCCNC(=N)N)C(=O)N[C@@H](Cc4c[nH]c5ccccc45)C(=O)O)NC(=O)[C@H](CO)NC3=O)NC(=O)[C@H](C)NC2=O)NC1=O (stereo partly drawn) [xenorceptide A12-1]
- MIC value (Escherichia coli; Escherichia coli M2): 8 µg/mL (≈ 5 µM)
- MIC value (Escherichia coli; Escherichia coli M6): 2 µg/mL (≈ 1.25 µM)
- MIC value (Escherichia coli; Escherichia coli M10): 2 µg/mL (≈ 1.25 µM)
- MIC value (Escherichia coli; Escherichia coli M11): 2 µg/mL (≈ 1.25 µM)
- MIC value (Klebsiella pneumoniae; [2]): 2 µg/mL (≈ 1.25 µM)
- MIC value (Klebsiella pneumoniae; CRE1006, Klebsiella pneumoniae): 2 µg/mL (≈ 1.25 µM)
- MIC value (Klebsiella pneumoniae; Klebsiella pneumoniae CRE 1007): 2 µg/mL (≈ 1.25 µM)
- MIC value (Klebsiella pneumoniae; Klebsiella pneumoniae CRE1008): 4 µg/mL (≈ 2.5 µM)
- MIC value (Klebsiella pneumoniae; Klebsiella pneumoniae CRE1011): 4 µg/mL (≈ 2.5 µM)
- MIC value (Klebsiella pneumoniae; Klebsiella pneumoniae CRE1012): 4 µg/mL (≈ 2.5 µM)
- MIC value (Acinetobacter baumannii; [3]): 8 µg/mL (≈ 5 µM)
- MIC value (Acinetobacter baumannii; [4]): 8 µg/mL (≈ 5 µM)
- MIC value (Acinetobacter baumannii; [5]): 8 µg/mL (≈ 5 µM)
- MIC value (Acinetobacter baumannii; [6]): 8 µg/mL (≈ 5 µM)
- MIC value (Enterobacter cloacae; Enterobacter cloacae CRE1010): 2 µg/mL (≈ 1.25 µM)
- MIC value (Enterobacter cloacae; Enterobacter cloacae CRE1014): 8 µg/mL (≈ 5 µM)
- MIC value (Enterobacter cloacae; Enterobacter cloacae CRE1015): 16 µg/mL (≈ 9.99 µM)
- MIC value (Enterobacter cloacae; Enterobacter cloacae CRE1016): 8 µg/mL (≈ 5 µM)
- MIC value (Enterobacter cloacae; Enterobacter cloacae CRE1017): 16 µg/mL (≈ 9.99 µM)
- MIC value (Pseudomonas aeruginosa; Pseudomonas aeruginosa DM4150R): 32 µg/mL (≈ 20 µM)
- MIC value (Pseudomonas aeruginosa; Pseudomonas aeruginosa DM23376): > 32 µg/mL
- MIC value (Pseudomonas aeruginosa; [7]): 32 µg/mL (≈ 20 µM)
- MIC value (Pseudomonas aeruginosa; [8]): 32 µg/mL (≈ 20 µM)

Compound: CC[C@H](C)[C@H](NC(=O)CNC(=O)[C@H](CC(=O)O)NC(=O)[C@H](CC(=O)O)NC(=O)[C@H](CC(=O)O)NC(=O)[C@H](CO)NC(=O)[C@@H](N)CO)C(=O)N[C@H]1Cc2ccc(cc2)C(CCCN)[C@@H](C(=O)N[C@H](C(=O)N[C@H](C(=O)N[C@H]2Cc3c[nH]c4cc(ccc34)C(CCNC(=N)N)[C@@H](C(=O)N[C@@H](CCCNC(=N)N)C(=O)O)NC(=O)[C@H](CC(=O)O)NC2=O)[C@@H](C)O)[C@@H](C)O)NC(=O)[C@H](Cc2ccccc2)NC1=O (stereo partly drawn) [Compound 22]
- antibacterial activity [1]: no activity

Compound: CC(C)[C@@H]1NC(=O)[C@@H](N)Cc2c[nH]c3cc(ccc23)C(C(N)=O)[C@@H](C(=O)N[C@@H](C)C(=O)N[C@H]2Cc3ccc(cc3)C(C(N)=O)[C@@H](C(=O)N[C@H]3Cc4c[nH]c5cc(ccc45)C(CCCN)[C@@H](C(=O)N[C@@H](CCCNC(=N)N)C(=O)N[C@@H](Cc4ccccc4)C(=O)O)NC(=O)[C@H]([C@@H](C)O)NC3=O)NC(=O)[C@H](C)NC2=O)NC1=O (stereo partly drawn) [xenorceptide A8]
- MIC (Escherichia coli; Escherichia coli ATCC 25922): 2 µg/mL (≈ 1.3 µM)
- MIC (Klebsiella pneumoniae; Klebsiella pneumoniae ATCC 700603): 4 µg/mL (≈ 2.61 µM)
- MIC (Staphylococcus aureus): >64 µg/mL
- MIC (Acinetobacter baumannii; Acinetobacter baumannii ATCC 19606): >64 µg/mL
- MIC (Pseudomonas aeruginosa; Pseudomonas aeruginosa ATCC 9027): 64 µg/mL (≈ 41.7 µM)

Compound: CC(C)C[C@H](NC(=O)[C@H]1NC(=O)[C@H](Cc2ccccc2)NC(=O)[C@@H](NC(=O)[C@@H](NC(=O)[C@H](CCC(=O)O)NC(=O)[C@H](C)NC(=O)[C@@H](NC(=O)[C@H](CO)NC(=O)[C@H](C)N)[C@@H](C)O)[C@@H](C)O)Cc2c[nH]c3cc(ccc23)C1CCCN)C(=O)N[C@@H](CC(=O)O)C(=O)N[C@H]1Cc2c[nH]c3cc(ccc23)C(CCCN)[C@@H](C(=O)N[C@@H](CO)C(=O)N[C@@H](Cc2ccccc2)C(=O)O)NC(=O)[C@H](CCCCN)NC1=O (stereo partly drawn) [Compound 21]
- antibacterial activity [1]: no activity

Compound: Xenorceptide B1 (GDRWLKWIKNH; listed as Photorhabdus laumondii)
- MIC value (Escherichia coli; Escherichia coli M2): > 32 µg/mL
- MIC value (Escherichia coli; Escherichia coli M6): > 32 µg/mL
- MIC value (Escherichia coli; Escherichia coli M10): > 32 µg/mL
- MIC value (Escherichia coli; Escherichia coli M11): > 32 µg/mL
- MIC value (Klebsiella pneumoniae; [2]): > 32 µg/mL
- MIC value (Klebsiella pneumoniae; CRE1006, Klebsiella pneumoniae): > 32 µg/mL
- MIC value (Klebsiella pneumoniae; Klebsiella pneumoniae CRE 1007): > 32 µg/mL
- MIC value (Klebsiella pneumoniae; Klebsiella pneumoniae CRE1008): > 32 µg/mL
- MIC value (Klebsiella pneumoniae; Klebsiella pneumoniae CRE1011): > 32 µg/mL
- MIC value (Klebsiella pneumoniae; Klebsiella pneumoniae CRE1012): > 32 µg/mL
- MIC value (Acinetobacter baumannii; [3]): > 32 µg/mL
- MIC value (Acinetobacter baumannii; [4]): > 32 µg/mL
- MIC value (Acinetobacter baumannii; [5]): > 32 µg/mL
- MIC value (Acinetobacter baumannii; [6]): > 32 µg/mL
- MIC value (Acinetobacter baumannii; Acinetobacter baumanii ATCC 19606): > 32 µg/mL
- MIC value (Enterobacter cloacae; Enterobacter cloacae ATCC 13047): > 32 µg/mL
- MIC value (Enterobacter cloacae; Enterobacter cloacae CRE1010): > 32 µg/mL
- MIC value (Enterobacter cloacae; Enterobacter cloacae CRE1014): > 32 µg/mL
- MIC value (Enterobacter cloacae; Enterobacter cloacae CRE1015): > 32 µg/mL
- MIC value (Enterobacter cloacae; Enterobacter cloacae CRE1016): > 32 µg/mL
- MIC value (Enterobacter cloacae; Enterobacter cloacae CRE1017): > 32 µg/mL
- MIC value (Pseudomonas aeruginosa; Pseudomonas aeruginosa DM4150R): > 32 µg/mL
- MIC value (Pseudomonas aeruginosa; Pseudomonas aeruginosa DM23376): > 32 µg/mL
- MIC value (Pseudomonas aeruginosa; [7]): > 32 µg/mL
- MIC value (Pseudomonas aeruginosa; [8]): > 32 µg/mL

Compound: CC(C)[C@@H]1NC(=O)[C@@H](N)Cc2c[nH]c3cc(ccc23)C(C(N)=O)[C@@H](C(=O)N[C@@H](C)C(=O)N[C@H]2Cc3cccc(c3)C(CCNC(=N)N)[C@@H](C(=O)N[C@H]3Cc4c[nH]c5cc(ccc45)C(CCNC(=N)N)[C@@H](C(=O)N[C@@H](CCCNC(=N)N)C(=O)N[C@@H](Cc4c[nH]c5ccccc45)C(=O)O)NC(=O)[C@H](CO)NC3=O)NC(=O)[C@H](C)NC2=O)NC1=O (stereo partly drawn) [xenorceptide A11]
- MIC value (Escherichia coli; Escherichia coli M2): 8 µg/mL (≈ 4.91 µM)
- MIC value (Escherichia coli; Escherichia coli M6): 4 µg/mL (≈ 2.46 µM)
- MIC value (Escherichia coli; Escherichia coli M10): 2 µg/mL (≈ 1.23 µM)
- MIC value (Escherichia coli; Escherichia coli M11): 4 µg/mL (≈ 2.46 µM)
- MIC value (Klebsiella pneumoniae; [2]): 1 µg/mL (≈ 0.614 µM)
- MIC value (Klebsiella pneumoniae; CRE1006, Klebsiella pneumoniae): 4 µg/mL (≈ 2.46 µM)
- MIC value (Klebsiella pneumoniae; Klebsiella pneumoniae CRE 1007): 4 µg/mL (≈ 2.46 µM)
- MIC value (Klebsiella pneumoniae; Klebsiella pneumoniae CRE1008): 4 µg/mL (≈ 2.46 µM)
- MIC value (Klebsiella pneumoniae; Klebsiella pneumoniae CRE1011): 4 µg/mL (≈ 2.46 µM)
- MIC value (Klebsiella pneumoniae; Klebsiella pneumoniae CRE1012): 4 µg/mL (≈ 2.46 µM)
- MIC value (Acinetobacter baumannii; [3]): 16 µg/mL (≈ 9.82 µM)
- MIC value (Acinetobacter baumannii; [4]): 16 µg/mL (≈ 9.82 µM)
- MIC value (Acinetobacter baumannii; [5]): 16 µg/mL (≈ 9.82 µM)
- MIC value (Acinetobacter baumannii; [6]): 16 µg/mL (≈ 9.82 µM)
- MIC value (Enterobacter cloacae; Enterobacter cloacae CRE1010): 4 µg/mL (≈ 2.46 µM)
- MIC value (Enterobacter cloacae; Enterobacter cloacae CRE1014): 8 µg/mL (≈ 4.91 µM)
- MIC value (Enterobacter cloacae; Enterobacter cloacae CRE1015): 16 µg/mL (≈ 9.82 µM)
- MIC value (Enterobacter cloacae; Enterobacter cloacae CRE1016): 8 µg/mL (≈ 4.91 µM)
- MIC value (Enterobacter cloacae; Enterobacter cloacae CRE1017): 16 µg/mL (≈ 9.82 µM)
- MIC value (Pseudomonas aeruginosa; Pseudomonas aeruginosa DM4150R): 16 µg/mL (≈ 9.82 µM)
- MIC value (Pseudomonas aeruginosa; Pseudomonas aeruginosa DM23376): 16 µg/mL (≈ 9.82 µM)
- MIC value (Pseudomonas aeruginosa; [7]): 32 µg/mL (≈ 19.6 µM)
- MIC value (Pseudomonas aeruginosa; [8]): 32 µg/mL (≈ 19.6 µM)
